Assay results as given in PubChem BioAssay AID1963984 (Molecular Pharmacology Branch, DTP, NCI, 2024).

Test system: 233499-124-R-J3-PDC spheroids with HUVEC/MSC, viability
Experiment: Anticancer human tumor 233499-124-R-J3-PDC patient-derived colon adenocarcinoma cell line growth inhibition [PI3K]
Settings: for IC50: curve of first compound; for viability, T/C: stronger effect = lower value
Summary of the method: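 Spheroid viability read-out. Co-cultures contained the tumor line plus HUVEC and human MSCs. Each agent was paired with a PI3K inhibitor (inavolisib, alpelisib, duvelisib, copanlisib) across half-log dilutions starting at clinical Cmax, or at 10 microM when Cmax was unknown.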
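Note: spheroids exposed to agents for seven days before readout.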
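Throughout, for viability, T/C: percent viability relative to DMSO vehicle control taken as 100%.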

Structure (SMILES): Cn1ncc(Cl)c1-c1cc(C(=O)NC(CN)Cc2cccc(F)c2)sc1Cl (configuration not stated) + COc1c(OCCCN2CCOCC2)ccc2c3n(c(=NC(=O)c4cnc(N)nc4)nc12)CCN3
- IC50 (second compound 0.00316 µM): 4100 nM
- IC50 (second compound 0.01 µM): 2780 nM
- IC50 (second compound 0.0316 µM): 1640 nM
- IC50 (second compound 0.1 µM): 516 nM
- IC50 (second compound 0.316 µM): < 31.6 nM
- IC50 (second compound 1 µM): < 31.6 nM
- viability, T/C (second compound 0.00316 µM, first compound 0.0316 µM): 70.1%
- viability, T/C (second compound 0.00316 µM, first compound 0.1 µM): 88.1%
- viability, T/C (second compound 0.00316 µM, first compound 0.316 µM): 83.2%
- viability, T/C (second compound 0.00316 µM, first compound 1 µM): 83.7%
- viability, T/C (second compound 0.00316 µM, first compound 3.16 µM): 58.9%
- viability, T/C (second compound 0.00316 µM, first compound 10 µM): 19.6%
- viability, T/C (second compound 0.01 µM, first compound 0.0316 µM): 81.6%
- viability, T/C (second compound 0.01 µM, first compound 0.1 µM): 97.4%
- viability, T/C (second compound 0.01 µM, first compound 0.316 µM): 98.8%
- viability, T/C (second compound 0.01 µM, first compound 1 µM): 77.8%
- viability, T/C (second compound 0.01 µM, first compound 3.16 µM): 46.8%
- viability, T/C (second compound 0.01 µM, first compound 10 µM): 46.1%
- viability, T/C (second compound 0.0316 µM, first compound 0.0316 µM): 81.9%
- viability, T/C (second compound 0.0316 µM, first compound 0.1 µM): 80.1%
- viability, T/C (second compound 0.0316 µM, first compound 0.316 µM): 78.8%
- viability, T/C (second compound 0.0316 µM, first compound 1 µM): 59.6%
- viability, T/C (second compound 0.0316 µM, first compound 3.16 µM): 36.3%
- viability, T/C (second compound 0.0316 µM, first compound 10 µM): 20.5%
- viability, T/C (second compound 0.1 µM, first compound 0.0316 µM): 61.7%
- viability, T/C (second compound 0.1 µM, first compound 0.1 µM): 62.8%
- viability, T/C (second compound 0.1 µM, first compound 0.316 µM): 56.9%
- viability, T/C (second compound 0.1 µM, first compound 1 µM): 37.7%
- viability, T/C (second compound 0.1 µM, first compound 3.16 µM): 36.7%
- viability, T/C (second compound 0.1 µM, first compound 10 µM): 16.1%
- viability, T/C (second compound 0.316 µM, first compound 0.0316 µM): 21.4%
- viability, T/C (second compound 0.316 µM, first compound 0.1 µM): 42.5%
- viability, T/C (second compound 0.316 µM, first compound 0.316 µM): 19.2%
- viability, T/C (second compound 0.316 µM, first compound 1 µM): 34.3%
- viability, T/C (second compound 0.316 µM, first compound 3.16 µM): 31.9%
- viability, T/C (second compound 0.316 µM, first compound 10 µM): 11.3%
- viability, T/C (second compound 1 µM, first compound 0.0316 µM): 8.63%
- viability, T/C (second compound 1 µM, first compound 0.1 µM): 9.16%
- viability, T/C (second compound 1 µM, first compound 0.316 µM): 15.4%
- viability, T/C (second compound 1 µM, first compound 1 µM): 10.9%
- viability, T/C (second compound 1 µM, first compound 3.16 µM): 7.03%
- viability, T/C (second compound 1 µM, first compound 10 µM): 1.23%
